Values of other authors, collected in US20220031737A1, “PHARMACEUTICAL COMPOSITIONS COMPRISING CHROMIUM AND CARBOHYDRATE BLOCKERS” (GluCare LLC, priority 2016, published 2022).

What was measured:
[1] = Sprague-Dawley rats, gavage, % of control
[2] = 1,000 μg of chromium per day
[3] = overweight African-American females, caloric restriction and exercise combined with oral NBC

O=C[C@H](O)[C@@H](O)[C@@H](O)CO [L-arabinose]
Glucose elevations above baseline over four hours following rice starch challenge, of control [1]: 85%

[Cr] [chromium]
Relief of symptoms of type 2 diabetes [2]: highly effective

niacin-bound chromium [NBC]
Fat loss and muscle loss compared to control group without NBC supplement [3]: increased fat loss and reduced muscle loss significantly
